Values after ≈ are worked out from the molar mass of the structure shown. Active and inactive are the calls of the source. The calls are words filed in the database; no cut-off is given here.
How the values were obtained:
Staphylococcus aureus [1] = experiment: Antibacterial activity against Staphylococcus aureus assessed as bacterial growth inhibition; assay type: functional
Shigella dysenteriae [2] = experiment: Antibacterial activity against Shigella dysenteriae assessed as bacterial growth inhibition at 12.5 ug/ml; assay type: functional, organism-based; conditions: dose 12.5 µg/ml
Candida albicans [3] = experiment: Antifungal activity against Candida albicans assessed as fungal growth inhibition at 12.5 ug/ml; assay type: functional, organism-based; conditions: dose 12.5 µg/ml
Pseudomonas aeruginosa [4] = experiment: Antibacterial activity against Pseudomonas aeruginosa assessed as bacterial growth inhibition at 12.5 ug/ml; assay type: functional, organism-based; conditions: dose 12.5 µg/ml
Salmonella typhi [5] = experiment: Antibacterial activity against Salmonella typhi assessed as bacterial growth inhibition at 12.5 ug/ml; assay type: functional, organism-based; conditions: Salmonella enterica subsp. enterica serovar Typhi; dose 12.5 µg/ml
Proteus vulgaris [6] = experiment: Antibacterial activity against Proteus vulgaris assessed as bacterial growth inhibition at 12.5 ug/ml; assay type: functional, organism-based; conditions: dose 12.5 µg/ml
Corynebacterium = experiment: Antibacterial activity against Corynebacterium assessed as bacterial growth inhibition at 12.5 ug/ml; assay type: functional, organism-based; conditions: dose 12.5 µg/ml
Bacillus subtilis [7] = experiment: Antibacterial activity against Bacillus subtilis assessed as bacterial growth inhibition at 12.5 ug/ml; assay type: functional, organism-based; conditions: dose 12.5 µg/ml
Streptococcus pyogenes [8] = experiment: Antibacterial activity against Streptococcus pyogenes assessed as bacterial growth inhibition at 12.5 ug/ml; assay type: functional, organism-based; conditions: dose 12.5 µg/ml
Staphylococcus aureus [9] = experiment: Antibacterial activity against Staphylococcus aureus assessed as bacterial growth inhibition at 12.5 ug/ml; assay type: functional, organism-based; conditions: dose 12.5 µg/ml
Staphylococcus aureus [10] = experiment: Antibacterial activity against Staphylococcus aureus assessed as inhibition of bacterial growth measured after 24 hrs by serial dilution method; assay type: functional
Staphylococcus aureus [11] = experiment: Bactericidal activity against Staphylococcus aureus; assay type: functional
Streptococcus pyogenes [12] = experiment: Antibacterial activity against Streptococcus pyogenes assessed as bacterial growth inhibition; assay type: functional
Bacillus subtilis [13] = experiment: Antibacterial activity against Bacillus subtilis assessed as bacterial growth inhibition; assay type: functional
Corynebacterium ulcerans = experiment: Antibacterial activity against Corynebacterium ulcerans assessed as bacterial growth inhibition; assay type: functional
Proteus vulgaris [14] = experiment: Antibacterial activity against Proteus vulgaris assessed as bacterial growth inhibition; assay type: functional
Pseudomonas aeruginosa [15] = experiment: Antibacterial activity against Pseudomonas aeruginosa assessed as bacterial growth inhibition; assay type: functional
Salmonella typhi [16] = experiment: Antibacterial activity against Salmonella typhi assessed as bacterial growth inhibition; assay type: functional, Salmonella enterica subsp. enterica serovar Typhi; conditions: Salmonella enterica
Shigella dysenteriae [17] = experiment: Antibacterial activity against Shigella dysenteriae assessed as bacterial growth inhibition; assay type: functional
Candida albicans [18] = experiment: Antifungal activity against Candida albicans assessed as fungal growth inhibition; assay type: functional

CC[C@H](CC[C@@H](C)[C@H]1CC[C@H]2[C@@H]3CC=C4C[C@@H](O)CC[C@]4(C)[C@H]3CC[C@]12C)C(C)C [BETA-SITOSTEROL]
MBC (Staphylococcus aureus [1]): 50 mg/L (≈ 121 µM)
growth inhibition (GI) (Shigella dysenteriae [2]): Active
growth inhibition (GI) (Candida albicans [3]): Active
growth inhibition (GI) (Pseudomonas aeruginosa [4]): Active
growth inhibition (GI) (Salmonella typhi [5]): Active
growth inhibition (GI) (Proteus vulgaris [6]): Active
growth inhibition (GI) (Corynebacterium): Active
growth inhibition (GI) (Bacillus subtilis [7]): Active
growth inhibition (GI) (Streptococcus pyogenes [8]): Active
growth inhibition (GI) (Staphylococcus aureus [9]): Active
MIC (Staphylococcus aureus [10]): 1240 mg/L (≈ 2990 µM)
MBC (Staphylococcus aureus [11]): 2210 mg/L (≈ 5320 µM)
MBC (Streptococcus pyogenes [12]): 50 mg/L (≈ 121 µM)
MBC (Bacillus subtilis [13]): 25 mg/L (≈ 60.3 µM)
MBC (Corynebacterium ulcerans): 25 mg/L (≈ 60.3 µM)
MBC (Proteus vulgaris [14]): 50 mg/L (≈ 121 µM)
MBC (Pseudomonas aeruginosa [15]): 50 mg/L (≈ 121 µM)
MBC (Salmonella typhi [16]): 25 mg/L (≈ 60.3 µM)
MBC (Shigella dysenteriae [17]): 50 mg/L (≈ 121 µM)
MFC (Candida albicans [18]): 50 mg/L (≈ 121 µM)

— ChEMBL document CHEMBL4825710, “Antibacterial activity of β-sitosterol isolated from the leaves of Odontonema strictum (Acanthaceae)” (2021)
